The values below come from US20250241586A1, “Bioavailability and bioequivalence through intrinsic activity and KD measurements, in vivo, in humans” (priority 2024, published 2025).

pKd: −log10 of the molar value. Like-named read-outs stand apart in the source and are kept apart here.

One data set deals with benzodiazepine receptors. Nature of the data set: Sleep time in human male volunteers; in vivo KD from reciprocals plot. The following applies: for A Free drug**: free drug quantity crossing the blood brain barrier. The method, then: Drug action is measured by the following parameters all measured in vivo in living animals/humans. • A) Onset time and threshold dose/concentration (minimum dose/concentration to initiate the effect,) these indicate the potency of the drug. • B) Intrinsic Activity or the maximum possible effect, • C) Dissociation constant. Its reciprocal measures the affinity of the drug for the receptor. The above named, parameters have been measured as stated below:
The literature also notes that there could be huge differences in in vivo and in vitro values and in such cases in vivo values are to be taken, if available (1). […] A point in this regard is that many drugs act on multiple receptor systems and in such cases the response is to be chosen such that only one receptor system is involved. […] The assumption is valid since the amount of bound drug is negligible compared to the total amount of drug at receptor and may be neglected. […] Alprazolam was administered to human male volunteers with sound health, of average weight and having normal creatinine clearance in the doses of 4 mcg/kg, 6 mcg/kg and 8 mcg/kg, and onset and sleep times noted. • The amount of free drug crossing the blood brain barrier was obtained.

Data set [1] addresses K+ channels of the beta cells of the pancreas (Homo sapiens, UniProt Q09428). The following applies: for KD: in vivo in humans, from slope of 1/fractional response vs 1/A plot.
For data set [2] the following is noted: in vitro and cell culture; read-out: KD literature values; cited from earlier work.

Broadly, the pKd is the Kd on a negative log10 scale, so that one unit is a factor of ten. As a reminder, the KD is a measure of binding affinity in units of concentration. Higher therefore signals a looser complex.

Chain of K+ channels of the beta cells of the pancreas (Q09428 whole entry): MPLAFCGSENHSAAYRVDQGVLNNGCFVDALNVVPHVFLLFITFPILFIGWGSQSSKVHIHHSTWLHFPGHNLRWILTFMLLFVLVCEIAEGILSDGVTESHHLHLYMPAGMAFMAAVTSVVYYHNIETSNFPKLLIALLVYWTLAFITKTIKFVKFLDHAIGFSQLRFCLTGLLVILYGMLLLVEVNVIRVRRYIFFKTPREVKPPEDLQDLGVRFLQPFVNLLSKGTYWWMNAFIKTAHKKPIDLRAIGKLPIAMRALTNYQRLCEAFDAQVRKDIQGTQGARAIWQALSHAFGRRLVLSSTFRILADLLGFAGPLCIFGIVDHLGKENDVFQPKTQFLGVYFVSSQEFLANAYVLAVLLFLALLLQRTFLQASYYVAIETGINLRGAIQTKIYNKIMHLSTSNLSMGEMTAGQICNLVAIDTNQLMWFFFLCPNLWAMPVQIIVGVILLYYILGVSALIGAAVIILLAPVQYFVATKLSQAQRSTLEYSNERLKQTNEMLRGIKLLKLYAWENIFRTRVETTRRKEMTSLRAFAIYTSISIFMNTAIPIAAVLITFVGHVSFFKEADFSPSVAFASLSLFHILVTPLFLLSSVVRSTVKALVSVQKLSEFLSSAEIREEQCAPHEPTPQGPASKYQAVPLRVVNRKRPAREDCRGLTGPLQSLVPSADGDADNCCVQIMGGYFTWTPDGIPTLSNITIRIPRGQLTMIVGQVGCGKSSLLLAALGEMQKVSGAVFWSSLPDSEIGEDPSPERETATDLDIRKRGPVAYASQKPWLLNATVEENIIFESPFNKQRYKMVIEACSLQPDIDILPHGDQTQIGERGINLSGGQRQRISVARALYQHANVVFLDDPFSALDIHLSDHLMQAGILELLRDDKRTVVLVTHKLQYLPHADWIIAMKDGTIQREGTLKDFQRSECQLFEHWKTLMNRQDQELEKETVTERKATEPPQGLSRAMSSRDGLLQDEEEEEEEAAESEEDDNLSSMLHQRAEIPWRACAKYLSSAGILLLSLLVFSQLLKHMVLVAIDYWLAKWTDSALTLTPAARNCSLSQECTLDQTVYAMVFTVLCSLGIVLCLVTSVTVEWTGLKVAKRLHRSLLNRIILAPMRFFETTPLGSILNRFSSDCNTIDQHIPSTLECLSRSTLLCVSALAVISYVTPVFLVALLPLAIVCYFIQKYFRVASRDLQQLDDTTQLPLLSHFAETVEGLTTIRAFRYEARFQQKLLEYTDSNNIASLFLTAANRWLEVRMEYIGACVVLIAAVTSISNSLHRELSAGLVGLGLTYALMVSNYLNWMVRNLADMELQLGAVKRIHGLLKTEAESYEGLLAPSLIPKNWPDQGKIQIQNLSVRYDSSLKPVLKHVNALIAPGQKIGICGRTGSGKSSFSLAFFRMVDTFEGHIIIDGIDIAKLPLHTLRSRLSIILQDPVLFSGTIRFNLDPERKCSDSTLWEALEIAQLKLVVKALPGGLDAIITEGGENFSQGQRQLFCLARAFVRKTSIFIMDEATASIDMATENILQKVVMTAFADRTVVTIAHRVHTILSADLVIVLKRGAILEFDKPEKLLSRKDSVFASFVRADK
Chain of K+ channels of the beta cells of the pancreas (Q14654 whole entry partner): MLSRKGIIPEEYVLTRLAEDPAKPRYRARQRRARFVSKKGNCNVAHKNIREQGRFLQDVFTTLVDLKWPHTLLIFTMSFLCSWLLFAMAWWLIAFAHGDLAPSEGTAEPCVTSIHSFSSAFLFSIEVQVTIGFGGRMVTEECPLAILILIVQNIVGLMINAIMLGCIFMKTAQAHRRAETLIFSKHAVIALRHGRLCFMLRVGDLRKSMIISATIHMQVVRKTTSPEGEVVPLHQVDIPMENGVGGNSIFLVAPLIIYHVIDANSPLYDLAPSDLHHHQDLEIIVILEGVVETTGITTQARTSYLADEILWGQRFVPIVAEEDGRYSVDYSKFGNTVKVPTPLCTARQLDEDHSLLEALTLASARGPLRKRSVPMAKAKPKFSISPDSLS

Take `Cc1nnc2n1-c1ccc(Cl)cc1C(c1ccccc1)=NC2` [Alprazolam, alprazolam]: in the data set on benzodiazepine receptors (alprazolam dose 4 Mcg/kg), the 1/A is reported as 225.8, the 1/Fractional response is on record as 3.8, the Response sleep time was found to be 63 min and the “A Free drug**” value was determined as 0.0044 Mcg/ml. Besides, in the data set with benzodiazepine receptors (alprazolam dose 6 Mcg/kg), the 1/A is given as 151.4, the 1/Fractional response amounted to 2.4, the Response sleep time turned out to be 100 min and the “A Free drug**” value was 0.0066 Mcg/ml. In the data set with benzodiazepine receptors (alprazolam dose 8 Mcg/kg), the 1/A amounted to 49.8, the 1/Fractional response was 1.0, the Response sleep time is listed as 241 min and the “A Free drug**” value is listed as 0.0088 Mcg/ml. The compound further showed a Threshold dose with benzodiazepine receptors (humans) of 4 mcg/kg bodyweight. Moreover, the negative logarithm of the Kd (pKd) with benzodiazepine receptors (in vivo in humans, response sleep time, free drug crossing the blood brain barrier, slope of reciprocals plot) is 7.29.

With `CCC1=C(C)CN(C(=O)NCCc2ccc(S(=O)(=O)NC(=O)N[C@H]3CC[C@H](C)CC3)cc2)C1=O` [Glimepride, glimepride], the 1/Fractional response was determined as 17.24 in data set [1] (glimepride dose 5 Mcg/kg), 4.48 in data set [1] (glimepride dose 10 Mcg/kg) and 1.0 in data set [1] (glimepride dose 20 Mcg/kg). The figures for the “Response AUC reduction” value in data set [1] (glimepride dose 5 Mcg/kg), in data set [1] (glimepride dose 10 Mcg/kg) and in data set [1] (glimepride dose 20 Mcg/kg) were 30 mg·h/dL, 115 mg·h/dL and 514 mg·h/dL, respectively. Further, the dissociation constant (KD) result in data set [1] is recorded as “KD = 2.018 nM”; in data set [1] (listed as glimepride) it was 2.0 nM. In data set [1] (point of inflection of log dose response curve, humans), this compound gave a Threshold dose of 5 mcg/kg body weight.

As to `Cc1cnc(C(=O)NCCc2ccc(S(=O)(=O)NC(=O)NC3CCCCC3)cc2)cn1` [Glipizide, glipizide], the KD result in data set [1] was “KD = 8.98 nM”; in data set [1] (listed as glipizide), 8.98 nM. Further, the pKd in data set [2] was approximately 8.00.
